Patent publication US20130053243A1, “PLANTS HAVING INCREASED TOLERANCE TO HERBICIDES” (BASF SE, priority 2010, published 2013)

Experiments:
[1] = biological target: Chlamydomonas HPPD1 (Chlamydomonas reinhardtii, UniProt A0A2K3DET7); experiment: HPPD activity assay, wildtype enzyme; assay type: biochemical; details: calculated from IC50 with Cheng-Prusoff equation, read-out: dissociation constant Ki
Method: HPPD produces homogentisic acid and CO2 from 4-hydroxyphenylpyruvate (4-HPP) and O2. The activity assay for HPPD is based on the analysis of homogentisic acid by reversed phase HPLC.
The assay mixture can contain 150 mM potassium phosphate buffer pH 7.0, 50 mM L-ascorbic acid, 1 μM FeSO4 and 7 μg of purified enzyme in a total volume of 1 ml.
Inhibitors are dissolved in DMSO (dimethylsulfoxide) to a concentration of 20 mM or 0.5 mM, respectively. From this stock solution serial five-fold dilutions are prepared in DMSO, which are used in the assay. The respective inhibitor solution accounts for 1% of the assay volume.
After a preincubation of 30 min the reaction is started by adding 4-HPP to a final concentration of 0.1 mM. The reaction is allowed to proceed for 120 min at room temperature. The reaction is stopped by addition of 100 μl of 4.5 M phosphoric acid.
Activities are normalized by setting the uninhibited enzyme activity to 100%. IC50 values are calculated using non-linear regression.
The assay mixture can contain 150 mM potassium phosphate buffer pH 7.0, 50 mM L-ascorbic acid, 100 μM Catalase (Sigma-Aldrich), 1 μM FeSO4 and 0.2 units of purified HPPD enzyme in a total volume of 505 μl. […]
HGA is detected electrochemically at 750 mV (mode: DC; polarity: positive) and quantified by integrating peak areas (Empower software; Waters).
Inhibitors are dissolved in DMSO (dimethylsulfoxide) to a concentration of 0.5 mM. […] IC50 values are calculated using non-linear regression.
Using methods which are described in the above examples or well known in the art, purified, recombinant wildtype HPPD enzymes are characterized with respect to their kinetic properties and sensitivity towards HPPD inhibiting herbicides. Apparent michaelis constants (Km) and maximal reaction velocities (Vmax) are calculated by non-linear regression with the software GraphPad Prism 5 (GraphPad Software, La Jolla, USA) using a substrate inhibition model. […] Weighted means (by standard error) of Km and IC50 values are calculated from at least three independent experiments.

[2] = test system: soybean plants, wild type (non-transformed); experiment: Greenhouse spray test, soybean T0 cuttings; assay type: in vivo, Glycine max; details: no transgene, two weeks after treatment, scale 0 (no injury) to 9 (complete death)
Method: Transgenic plants expressing heterologous HPPD or HST enzymes are tested for tolerance against coumarone-derivative herbicides in greenhouse experiments.
For post emergence treatment, the test plants are first grown to a height of 3 to 15 cm, depending on the plant habit, and only then treated with the herbicides. For this purpose, the test plants are either sown directly and grown in the same containers, or they are first grown separately and transplanted into the test containers a few days prior to treatment.
For testing of T0 plants, cuttings can be used. In the case of soybean plants, an optimal shoot for cutting is about 7.5 to 10 cm tall, with at least two nodes present. Each cutting is taken from the original transformant (mother plant) and dipped into rooting hormone powder (indole-3-butyric acid, IBA). The cutting is then placed in oasis wedges inside a bio-dome. Wild type cuttings are also taken simultaneously to serve as controls. The cuttings are kept in the bio-dome for 5-7 days and then transplanted to pots and then acclimated in the growth chamber for two more days. Subsequently, the cuttings are transferred to the greenhouse, acclimated for approximately 4 days, and then subjected to spray tests as indicated. Depending on the species, the plants are kept at 10-25° C. or 20-35° C. The test period extends over 3 weeks. During this time, the plants are tended and their response to the individual treatments is evaluated. Herbicide injury evaluations are taken at 2 and 3 weeks after treatment. Plant injury is rated on a scale of 0 to 9, 0 being no injury and 9 being complete death.

[3] = test system: Chlamydomonas strain CMr10; experiment: Growth inhibition of Chlamydomonas strains (tolerance); assay type: cell-based, Chlamydomonas reinhardtii; details: read-out: IC50 of growth inhibition
Method: (§1) Algae cells of Chlamydomonas reinhardtii strains CC-503 and CC-1691 (Duke University, Durham, USA) are propagated in TAP medium (Gorman and Levine (1965) PNAS 54: 1665-1669) by constant shaking at 100 rpm, 22° C. and 30 μmol Phot*m^−2*[…] light illumination. Scenedesmus obliquus (University of Gottingen, Germany) are propagated in algae medium as described (Boger and Sandmann, (1993) In: Target assays for modern herbicides and related phytotoxic compounds, Lewis Publishers) under same culturing conditions as mentioned for Chlamydomonas. Compound screening is performed at 450 μmol Phot*m^−2*[…] illumination.
(§2) Sensitive strains of Chlamydomonas reinhardtii or Scenedesmus obliquus (Tables 14, 15) are mutated with 0.14 […] (EMS) for 1 h as described by Loppes (1969, Mol Gen Genet. 104: 172-177) Tolerant strains are identified by screening of mutagenized cells on solid nutrient solution plates containing “coumarone-derivative herbicides” or other HPPD inhibiting herbicides at wildype-lethal concentrations. Examples of the data obtained are depicted in Table 16 and FIG. 2.

[4] = test system: Chlamydomonas strain CMr06; experiment: as above; assay type: cell-based, Chlamydomonas reinhardtii; details: read-out: IC50 of growth inhibition
Method: as §1, §2

[5] = test system: Chlamydomonas strain CMr15; experiment: as above; assay type: cell-based, Chlamydomonas reinhardtii; details: read-out: IC50 of growth inhibition
Method: as §1, §2

[6] = test system: Chlamydomonas strain CMr13; experiment: as above; assay type: cell-based, Chlamydomonas reinhardtii; details: read-out: IC50 of growth inhibition
Method: as §1, §2

[7] = test system: Chlamydomonas strain CMr04; experiment: as above; assay type: cell-based, Chlamydomonas reinhardtii; details: read-out: IC50 of growth inhibition
Method: as §1, §2

[8] = test system: Chlamydomonas strain CMr05; experiment: as above; assay type: cell-based, Chlamydomonas reinhardtii; details: read-out: IC50 of growth inhibition
Method: as §1, §2

[9] = test system: Chlamydomonas strain CC1961 wild-type; experiment: as above; assay type: cell-based, Chlamydomonas reinhardtii; details: read-out: IC50 of growth inhibition
Method: as §1, §2

Sequence of Chlamydomonas HPPD1 (A0A2K3DET7 entry or part of it): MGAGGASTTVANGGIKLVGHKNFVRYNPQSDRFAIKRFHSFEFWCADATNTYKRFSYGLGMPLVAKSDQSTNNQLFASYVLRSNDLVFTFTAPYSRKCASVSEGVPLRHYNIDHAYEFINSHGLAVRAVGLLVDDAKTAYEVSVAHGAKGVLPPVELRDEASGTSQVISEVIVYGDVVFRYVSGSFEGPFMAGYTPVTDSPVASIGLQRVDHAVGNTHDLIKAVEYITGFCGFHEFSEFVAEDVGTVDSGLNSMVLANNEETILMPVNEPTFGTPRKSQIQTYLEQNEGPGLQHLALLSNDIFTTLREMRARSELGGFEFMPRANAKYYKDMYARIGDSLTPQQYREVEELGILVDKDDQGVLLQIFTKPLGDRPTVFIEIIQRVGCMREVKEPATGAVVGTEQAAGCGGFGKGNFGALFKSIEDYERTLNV

CC1=NOC(c2c(Cl)ccc(C3=C(O)c4ncccc4N(CC(F)F)S3(=O)=O)c2Cl)C1 (stereo not drawn) [Inhibitor 1, 3-[2,4-dichloro-3-(3-methyl-4,5-dihydroisoxazol-5-yl)phenyl]-1-(2,2-difluoroethyl)-2,2-dioxo-pyrido[3,2-c]thiazin-4-ol]
Ki [1]: 0.029 µM
Injury evaluation (plant injury rating) ([2]; 50 g/ha): 4.5
Injury evaluation (plant injury rating) ([2]; 100 g/ha): 5.5
Injury evaluation (plant injury rating) ([2]; 200 g/ha): 6
IC50 [3]: > 1000 µM
IC50 [4]: > 1000 µM
IC50 [5]: > 1000 µM
IC50 [6]: 810 µM
IC50 [7]: > 1000 µM
IC50 [8]: > 1000 µM
IC50 [9]: 620 µM

Cc1c(C(=O)c2cnn(C)c2O)ccc(S(C)(=O)=O)c1C1=NOCC1 [Topramezone, reference compound]
Ki [1]: 0.038 µM
Injury evaluation (plant injury rating) ([2]; 6.25 g/ha): 7
Injury evaluation (plant injury rating) ([2]; 12.5 g/ha): 7
IC50 [3]: 920 µM
IC50 [4]: 860 µM
IC50 [5]: 230 µM
IC50 [6]: 200 µM
IC50 [7]: 390 µM
IC50 [8]: 710 µM
IC50 [9]: 140 µM
